These results are taken from paper PMC4922569, “Antifibrotic Effects of the Dual CCR2/CCR5 Antagonist Cenicriviroc in Animal Models of Liver and Kidney Fibrosis” (PLoS ONE, 2016).

Molecules are shown by their SMILES. Where a name gives a salt, the structure may show the parent alone.

The experiment has as its system UUO-induced renal fibrosis. Description: Mouse model of UUO-induced renal fibrosis. In kind it is in vivo. The following applies: for Reduction of UUO-induced increase in Collagen Volume Fraction (±SEM) vs UUO control: p < 0.05. The procedure: Unilateral ureter obstruction is a commonly used experimental model of kidney injury, in which interstitial inflammation, tubular cell injury/death and fibrosis, ensue. The protocol was approved by Plato BioPharma, Inc. IACUC (PBI; approval number 2013–04). The care and use of animals was conducted in accordance with the NIH Guide for the Care and Use of Laboratory Animals (2010), […] Guidelines on Euthanasia (2007), Office of Laboratory Animal Welfare Institutional Animal Care and Use Committee Guidebook (2002), Public Health Service Policy on Humane Care and Use of Laboratory Animals (2002), PBI standard operating procedures on a) moribund sacrifice, b) vivarium maintenance and animal care, and c) animal handling and dosing. Anesthesia was performed by isoflurane […]; animals were euthanized by diaphragm laceration followed by heart laceration while under isoflurane anesthesia.
Male CD-1 mice (n = 51; 7–8 weeks of age; Charles River Laboratories, USA) were allocated to weight-matched treatment groups on Day -1 (1 day prior to either sham [one group] or permanent right UUO surgery [five groups] via aseptic laparotomy). From Days -1 to 4, mice received phosphate-buffered saline (PBS) IP QD, apart from a positive-control group, which received 1D11 (anti-TGF-beta1 antibody) 3 mg/kg IP QD. From Days 0 to 5, mice received vehicle control (sham surgery, UUO-control and UUO+positive-control groups) or CVC 7 mg/kg/day (CVC7), CVC20 or CVC100 PO BID (S1 Table). The CVC100 group was terminated due to poor clinical condition (6/9 animals died and 3/9 euthanized prior to end of study). […]
In the UUO model, ten images/depth/kidney were assessed in a blinded fashion using Axio Imager.A2 (Zeiss, USA) light microscopy (at 200x magnification to enable 60–70% sampling of renal cortical area) and quantified by a composite Collagen Volume Fraction (CVF [% total area imaged]) score expressed as the average positive stain across three anatomically distinct ([…] apart) tissue sections, or depths, from the obstructed kidney.
In the UUO model, frozen renal cortical tissue biopsies were hydrolyzed and centrifuged, and the supernatant was analyzed by OD absorbance at 560 nm on a SpectraMax® 190 (Molecular Devices, USA). Standard curves for conversion of ODs to concentrations were generated using linear regression and sample concentrations were determined using SoftMax® Pro5 software (Molecular Devices, USA).
In the UUO model, mRNA expression levels in renal cortical tissue were evaluated using the QuantiGene® Plex 2.0 profiling platform (Affymetrix, USA). […]
In the UUO model, data are expressed as mean ±SEM. […]

Turning to `CCCCOCCOc1ccc(-c2ccc3c(c2)/C=C(/C(=O)Nc2ccc([S@@+]([O-])Cc4cncn4CCC)cc2)CCCN3CC(C)C)cc1` [CVC, cenicriviroc mesylate], the “Effect on UUO-induced increase in obstructed kidney hydroxyproline content” value (CVC7, CVC20 PO BID) is listed as “did not affect”. Besides, the “Reduction of UUO-induced increase in Collagen Volume Fraction (±SEM) vs UUO control” value is 28.6%±8.8 (CVC7 PO BID Days 0-5) and 31.8%±6.8 (CVC20 PO BID Days 0-5, single outlier removed). In addition, the “Inhibition of UUO-induced increases in obstructed renal cortical mRNA expression of fibrogenic genes” value (CVC7 and CVC20, trend, relative to UUO control) is listed as “did not reach statistical significance”.
